Laboratory results from US8883782B2, “Spiro-tetracyclic ring compounds as beta-secretase modulators and methods of use” (Amgen Inc., priority 2010, dated 2014).
Read-outs that look alike come from different tables or passages of the source.

Experiments:
[1] = tested on: Aβ40 in conditioned medium of cells stably expressing Amyloid Precursor Protein (APP); test: In vitro BACE cell-based assay (Aβ40 in conditioned medium, sandwich ELISA); settings: Homo sapiens, read-out: HEK cell assay
How it was run: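 The sandwich ELISA pairs pAb40 capture (3 h, 4 °C) with 6E10 detection (2 h, 4 °C) and a streptavidin-europium TRF read-out. Supernatants come from APP-expressing cells grown in 10% FBS DMEM.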

[2] = biological target: Beta Secretase enzyme (BACE) (Homo sapiens, UniProt P56817); test: In vitro enzymatic BACE FRET (fluorescence resonance energy transfer) assay; assay type: biochemical; settings: average IC50, enzyme assay; read-out: BACE 1 FRET assay
Beta Secretase enzyme (BACE), sequence (P56817 46-501, species assumed): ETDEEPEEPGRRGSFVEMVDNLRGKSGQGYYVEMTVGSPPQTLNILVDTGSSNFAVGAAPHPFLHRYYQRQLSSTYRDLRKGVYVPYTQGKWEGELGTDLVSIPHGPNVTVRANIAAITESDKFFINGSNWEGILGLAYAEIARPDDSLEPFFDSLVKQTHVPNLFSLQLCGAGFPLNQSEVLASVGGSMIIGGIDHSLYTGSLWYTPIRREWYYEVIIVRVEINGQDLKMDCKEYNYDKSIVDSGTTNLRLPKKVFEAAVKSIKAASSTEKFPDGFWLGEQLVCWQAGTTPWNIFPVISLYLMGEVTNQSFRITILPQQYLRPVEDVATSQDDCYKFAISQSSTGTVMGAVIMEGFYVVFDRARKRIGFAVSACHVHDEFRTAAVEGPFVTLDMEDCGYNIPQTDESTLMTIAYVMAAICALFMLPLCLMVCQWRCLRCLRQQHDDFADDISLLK
How it was run: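 Fluorescence read after Tris quench (pH raised to neutrality) of a one-hour BACE reaction. Buffer: acetate 0.05 M, pH 4.2, with 100 uM genapol and 10% DMSO final; started by adding 50 nM FRET peptide substrate spanning the cleavage site.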

[3] = HEK293, average IC50, HEK cells

SMILES | IC50 [1, 3] [nM] | IC50 [2] [nM] | IC50 ([1]; HEK293, average IC50) [nM]
Cc1nc(F)ccc1-c1ccc2c(c1)[C@@]1(COC(N)=N1)c1cc(-c3ccnc(F)c3)ncc1O2 [Example 252, (5S)-7-(6-fluoro-2-methyl-3-pyridinyl)-3-(2-fluoro-4-pyridinyl)spiro[chromeno[2,3-c]pyridine-5,4′-[1,3]oxazol]-2′-amine] | – | 66.1 | 548
COc1ncccc1-c1ccc2c(c1)[C@@]1(COC(N)=N1)c1cc(/C=C/C(C)(C)C)ncc1O2 [Example 408, (5S)-3-((1E)-3,3-dimethyl-1-buten-1-yl)-7-(2-methoxy-3-pyridinyl)spiro[chromeno[2,3-c]pyridine-5,4′-[1,3]oxazol]-2′-amine] | 311 | 20.1 | –
NC1=N[C@@]2(CO1)c1cc(-c3cncc(Cl)c3)ccc1Oc1cnc(C3CCOCC3)cc12 [Example 242, (5S)-7-(5-chloro-3-pyridinyl)-3-(tetrahydro-2H-pyran-4-yl)spiro[chromeno[2,3-c]pyridine-5,4′-[1,3]oxazol]-2′-amine] | – | 3.1 | 21.1
CC1(/C=C/c2cc(F)c3c(c2)[C@]2(COC(N)=N2)c2cc(-c4cccnc4F)ccc2O3)COC1 [Example 561, (4S)-4′-fluoro-7′-(2-fluoro-3-pyridinyl)-2′-((E)-2-(3-methyl-3-oxetanyl)ethenyl)spiro[1,3-oxazole-4,9′-xanthen]-2-amine] | 3.7 | 2 | –
N#Cc1cccc(-c2ccc3c(c2)[C@@]2(COC(N)=N2)c2cc(N4CC[C@@H](F)C4)ncc2O3)c1 [Example 425, 3-((5S)-2′-amino-3-((3R)-3-fluoro-1-pyrrolidinyl)spiro[chromeno[2,3-c]pyridine-5,4′-[1,3]oxazol]-7-yl)benzonitrile] | 4.8 | 0.8 | –
N#Cc1cccc(-c2ccc3c(c2)[C@@]2(COC(N)=N2)c2cc(N4CC[C@H](F)C4)ncc2O3)c1 [Example 426, 3-((5S)-2′-amino-3-((3S)-3-fluoro-1-pyrrolidinyl)spiro[chromeno[2,3-c]pyridine-5,4′-[1,3]oxazol]-7-yl)benzonitrile] | 16.8 | 3.5 | –
CC1(C)C=C(c2cnc3c(c2)[C@]2(COC(N)=N2)c2c(ccc(-c4cncnc4)c2F)O3)CCO1 [Example 352, (5R)-3-(6,6-dimethyl-3,6-dihydro-2H-pyran-4-yl)-6-fluoro-7-(5-pyrimidinyl)spiro[chromeno[2,3-b]pyridine-5,4′-[1,3]oxazol]-2′-amine] | – | 2.8 | 19.4
N#Cc1cncc(-c2ccc3c(c2)[C@@]2(COC(N)=N2)c2cc(OCC4CCOCC4)cc(F)c2O3)c1 [Example 553, 5-((4S)-2-amino-5′-fluoro-7′-(tetrahydro-2H-pyran-4-ylmethoxy)spiro[1,3-oxazole-4,9′-xanthen]-2′-yl)-3-pyridinecarbonitrile] | 13.2 | 2.4 | –
CC1(C#Cc2cnc3c(c2)[C@@]2(COC(N)=N2)c2c(ccc(-c4cccnc4F)c2F)O3)COC1 [Example 341, (5S)-6-fluoro-7-(2-fluoro-3-pyridinyl)-3-((3-methyl-3-oxetanyl)ethynyl)spiro[chromeno[2,3-b]pyridine-5,4′-[1,3]oxazol]-2′-amine] | – | 154 | 566
CC1(C)C[C@@H](c2cnc3c(c2)[C@]2(COC(N)=N2)c2cc(-c4cncc(Cl)c4)ccc2O3)CCO1 [Example 466, (5S)-7-(5-chloro-3-pyridinyl)-3-((4S)-2,2-dimethyltetrahydro-2H-pyran-4-yl)spiro[chromeno[2,3-b]pyridine-5,4′-[1,3]oxazol]-2′-amine] | 5.6 | 2.1 | –
NC1=NC2(CO1)c1cc(-c3cccnc3F)ccc1Oc1nc(F)c(-c3ccnc(F)c3)cc12 (centres unmarked) [Example 151, 2-fluoro-7-(2-fluoro-3-pyridinyl)-3-(2-fluoro-4-pyridinyl)spiro[chromeno[2,3-b]pyridine-5,4′-[1,3]oxazol]-2′-amine] | – | 1.3 | 50.8
COc1cncc(-c2ccc3c(c2)[C@@]2(COC(N)=N2)c2cc(OCC(C)(C)C#N)cc(F)c2O3)c1 [Example 264, 3-(((4S)-2-amino-4′-fluoro-7′-(5-methoxy-3-pyridinyl)spiro[1,3-oxazole-4,9′-xanthen]-2′-yl)oxy)-2,2-dimethylpropanenitrile] | – | 1 | 8.1
CC(C)(C)OCc1cnc2c(c1)[C@]1(COC(N)=N1)c1cc(-c3cccnc3F)c(F)cc1O2 [Example 716, (S)-3-(tert-butoxymethyl)-8-fluoro-7-(2-fluoropyridin-3-yl)-5′H-spiro[chromeno[2,3-b]pyridine-5,4′-oxazol]-2′-amine] | 132 | 6.5 | –
NC1=N[C@]2(CS1)c1cc(-c3cccnc3F)ccc1Oc1cnc(C3=CCOCC3)cc12 [Example 613, (5R)-3-(3,6-dihydro-2H-pyran-4-yl)-7-(2-fluoro-3-pyridinyl)spiro[chromeno[2,3-c]pyridine-5,4′-[1,3]thiazol]-2′-amine] | 2560 | 227 | –
Cc1cc(-c2ccc3c(c2)[C@@]2(COC(N)=N2)c2cc(-c4ccncc4)ncc2O3)cnc1F [Example 229, (5S)-7-(6-fluoro-5-methyl-3-pyridinyl)-3-(4-pyridinyl)spiro[chromeno[2,3-c]pyridine-5,4′-[1,3]oxazol]-2′-amine] | – | 12.8 | 60.4
CC1(C)CN(c2cnc3c(c2)[C@]2(COC(N)=N2)c2cc(C#CC4CC4)ccc2O3)CCO1 [Example 179, (5S)-7-(cyclopropylethynyl)-3-(2,2-dimethyl-4-morpholinyl)spiro[chromeno[2,3-b]pyridine-5,4′-[1,3]oxazol]-2′-amine] | – | 11.1 | 64.1
NC1=N[C@@]2(CO1)c1cc(-c3cncc(N4CC[C@H](F)C4)c3)ccc1Oc1cnc(Cl)cc12 [Example 428, (5S)-3-chloro-7-(5-((3S)-3-fluoro-1-pyrrolidinyl)-3-pyridinyl)spiro[chromeno[2,3-c]pyridine-5,4′-[1,3]oxazol]-2′-amine] | 2200 | 604 | –
CC1(C)CC(c2cnc3c(c2)[C@@]2(COC(N)=N2)c2c(ccc(-c4cncnc4)c2F)O3)=CCO1 [Example 355, (5S)-3-(2,2-dimethyl-3,6-dihydro-2H-pyran-4-yl)-6-fluoro-7-(5-pyrimidinyl)spiro[chromeno[2,3-b]pyridine-5,4′-[1,3]oxazol]-2′-amine] | – | 407 | 1280

Now from value to molecule:

IC50 [1, 3] [nM] | IC50 [2] [nM] | IC50 ([1]; HEK293, average IC50) [nM] | SMILES
2 | 0.3 | – | NC1=N[C@@]2(CO1)c1cc(-c3cncc(F)c3)ccc1Oc1c2cc(C2=CCOCC2)nc1F [Example 615, (5S)-3-(3,6-dihydro-2H-pyran-4-yl)-1-fluoro-7-(5-fluoro-3-pyridinyl)spiro[chromeno[2,3-c]pyridine-5,4′-[1,3]oxazol]-2′-amine]
– | 577 | 563 | NC1=N[C@@]2(CO1)c1cc(-c3cccnc3F)ccc1Oc1ncc(Br)cc12 [Example 1018, (5S)-3-bromo-7-(2-fluoro-3-pyridinyl)spiro[chromeno[2,3-b]pyridine-5,4′-[1,3]oxazol]-2′-amine]
15 | 1 | – | NC1=N[C@@]2(CO1)c1cc(-c3cccnc3)c(F)cc1Oc1c(F)cc(N3CCOCC3)cc12 [Example 861, (4S)-3′,5′-difluoro-7′-(4-morpholinyl)-2′-(3-pyridinyl)spiro[1,3-oxazole-4,9′-xanthen]-2-amine]
1 | 0.5 | – | CC#Cc1cncc(-c2ccc3c(c2)[C@@]2(COC(N)=N2)c2cc(-c4cnn(C)c4)cnc2O3)c1 [Example 944, (5S)-3-(1-methyl-1H-pyrazol-4-yl)-7-(5-(1-propyn-1-yl)-3-pyridinyl)spiro[chromeno[2,3-b]pyridine-5,4′-[1,3]oxazol]-2′-amine]
≥ 10000 | 835 | – | NC1=N[C@@]2(CO1)c1cc(O)ccc1Oc1ncc(C3=CCOCC3)cc12 [Example 969, (5S)-2′-amino-3-(3,6-dihydro-2H-pyran-4-yl)spiro[chromeno[2,3-b]pyridine-5,4′-[1,3]oxazol]-7-ol]
– | 0.6 | 17 | CC1(C)CC(c2cnc3c(c2)[C@]2(CSC(N)=N2)c2cc(-c4cccnc4F)ccc2O3)=CCO1 [Example 774, (5S)-3-(2,2-dimethyl-3,6-dihydro-2H-pyran-4-yl)-7-(2-fluoro-3-pyridinyl)spiro[chromeno[2,3-b]pyridine-5,4′-[1,3]thiazol]-2′-amine]
– | 5.8 | 1000 | COc1cc2c(c(F)c1F)Oc1ccc(-c3cccnc3F)cc1[C@@]21COC(N)=N1 [Example 1005, (4S)-3′,4′-difluoro-7′-(2-fluoro-3-pyridinyl)-2′-methoxyspiro[1,3-oxazole-4,9′-xanthen]-2-amine]
7 | 0.6 | – | CC(C)(C)C#Cc1cnc2c(c1)[C@]1(CSC(N)=N1)c1cc(-c3cncnc3)ccc1O2 [Example 629, (5S)-3-(3,3-dimethyl-1-butyn-1-yl)-7-(5-pyrimidinyl)spiro[chromeno[2,3-b]pyridine-5,4′-[1,3]thiazol]-2′-amine]
37 | 1.9 | – | CC#Cc1cc(F)c2c(c1)[C@]1(COC(N)=N1)c1cc(-c3cccnc3F)ccc1O2 [Example 651, (4S)-4′-fluoro-7′-(2-fluoro-3-pyridinyl)-2′-(1-propyn-1-yl)spiro[1,3-oxazole-4,9′-xanthen]-2-amine]
– | 50.7 | 604 | Cc1ccc(Oc2ccc3c(c2)[C@@]2(COC(N)=N2)c2cc(N4CCOCC4)cc(F)c2O3)nc1 [Example 1058, (4S)-4′-fluoro-7′-((5-methyl-2-pyridinyl)oxy)-2′-(4-morpholinyl)spiro[1,3-oxazole-4,9′-xanthen]-2-amine]
